molecular target: LRRK2 G2019S (Homo sapiens, UniProt Q5S007, G2019S); assay: LRRK2 G2019S Km ATP LanthaScreen assay; format: biochemical; details: read-out: LRRK2 pIC50 (converted)
Experimental: Unless otherwise noted, all reactions are magnetically stirred. Unless otherwise noted, when diethyl ether is used in the experiments described below, it is Fisher ACS certified material and is stabilized with BHT. Unless otherwise noted, “concentrated” and/or “solvent removed under reduced pressure” means evaporating the solvent from a solution or mixture using a rotary evaporator or vacuum pump. Unless otherwise noted, flash chromatography is carried out on a Teledyne Isco (Lincoln, NE), Analogix (Burlington, WI), or Biotage (Stockholm, SWE) automated chromatography system using a commercially available cartridge as the column. Columns may be purchased from Teledyne Isco, Analogix, Biotage, Varian (Palo Alto, CA), or Supelco (Bellefonte, PA) and are usually filled with silica gel as the stationary phase. Reverse phase prep-HPLC conditions, where used, can be found at the end of each experimental section. Aqueous solutions were concentrated on a Genevac (Ipswich, ENG) or by freeze-drying/lyophilization.

LRRK2 G2019S, sequence (Q5S007 whole entry G2019S): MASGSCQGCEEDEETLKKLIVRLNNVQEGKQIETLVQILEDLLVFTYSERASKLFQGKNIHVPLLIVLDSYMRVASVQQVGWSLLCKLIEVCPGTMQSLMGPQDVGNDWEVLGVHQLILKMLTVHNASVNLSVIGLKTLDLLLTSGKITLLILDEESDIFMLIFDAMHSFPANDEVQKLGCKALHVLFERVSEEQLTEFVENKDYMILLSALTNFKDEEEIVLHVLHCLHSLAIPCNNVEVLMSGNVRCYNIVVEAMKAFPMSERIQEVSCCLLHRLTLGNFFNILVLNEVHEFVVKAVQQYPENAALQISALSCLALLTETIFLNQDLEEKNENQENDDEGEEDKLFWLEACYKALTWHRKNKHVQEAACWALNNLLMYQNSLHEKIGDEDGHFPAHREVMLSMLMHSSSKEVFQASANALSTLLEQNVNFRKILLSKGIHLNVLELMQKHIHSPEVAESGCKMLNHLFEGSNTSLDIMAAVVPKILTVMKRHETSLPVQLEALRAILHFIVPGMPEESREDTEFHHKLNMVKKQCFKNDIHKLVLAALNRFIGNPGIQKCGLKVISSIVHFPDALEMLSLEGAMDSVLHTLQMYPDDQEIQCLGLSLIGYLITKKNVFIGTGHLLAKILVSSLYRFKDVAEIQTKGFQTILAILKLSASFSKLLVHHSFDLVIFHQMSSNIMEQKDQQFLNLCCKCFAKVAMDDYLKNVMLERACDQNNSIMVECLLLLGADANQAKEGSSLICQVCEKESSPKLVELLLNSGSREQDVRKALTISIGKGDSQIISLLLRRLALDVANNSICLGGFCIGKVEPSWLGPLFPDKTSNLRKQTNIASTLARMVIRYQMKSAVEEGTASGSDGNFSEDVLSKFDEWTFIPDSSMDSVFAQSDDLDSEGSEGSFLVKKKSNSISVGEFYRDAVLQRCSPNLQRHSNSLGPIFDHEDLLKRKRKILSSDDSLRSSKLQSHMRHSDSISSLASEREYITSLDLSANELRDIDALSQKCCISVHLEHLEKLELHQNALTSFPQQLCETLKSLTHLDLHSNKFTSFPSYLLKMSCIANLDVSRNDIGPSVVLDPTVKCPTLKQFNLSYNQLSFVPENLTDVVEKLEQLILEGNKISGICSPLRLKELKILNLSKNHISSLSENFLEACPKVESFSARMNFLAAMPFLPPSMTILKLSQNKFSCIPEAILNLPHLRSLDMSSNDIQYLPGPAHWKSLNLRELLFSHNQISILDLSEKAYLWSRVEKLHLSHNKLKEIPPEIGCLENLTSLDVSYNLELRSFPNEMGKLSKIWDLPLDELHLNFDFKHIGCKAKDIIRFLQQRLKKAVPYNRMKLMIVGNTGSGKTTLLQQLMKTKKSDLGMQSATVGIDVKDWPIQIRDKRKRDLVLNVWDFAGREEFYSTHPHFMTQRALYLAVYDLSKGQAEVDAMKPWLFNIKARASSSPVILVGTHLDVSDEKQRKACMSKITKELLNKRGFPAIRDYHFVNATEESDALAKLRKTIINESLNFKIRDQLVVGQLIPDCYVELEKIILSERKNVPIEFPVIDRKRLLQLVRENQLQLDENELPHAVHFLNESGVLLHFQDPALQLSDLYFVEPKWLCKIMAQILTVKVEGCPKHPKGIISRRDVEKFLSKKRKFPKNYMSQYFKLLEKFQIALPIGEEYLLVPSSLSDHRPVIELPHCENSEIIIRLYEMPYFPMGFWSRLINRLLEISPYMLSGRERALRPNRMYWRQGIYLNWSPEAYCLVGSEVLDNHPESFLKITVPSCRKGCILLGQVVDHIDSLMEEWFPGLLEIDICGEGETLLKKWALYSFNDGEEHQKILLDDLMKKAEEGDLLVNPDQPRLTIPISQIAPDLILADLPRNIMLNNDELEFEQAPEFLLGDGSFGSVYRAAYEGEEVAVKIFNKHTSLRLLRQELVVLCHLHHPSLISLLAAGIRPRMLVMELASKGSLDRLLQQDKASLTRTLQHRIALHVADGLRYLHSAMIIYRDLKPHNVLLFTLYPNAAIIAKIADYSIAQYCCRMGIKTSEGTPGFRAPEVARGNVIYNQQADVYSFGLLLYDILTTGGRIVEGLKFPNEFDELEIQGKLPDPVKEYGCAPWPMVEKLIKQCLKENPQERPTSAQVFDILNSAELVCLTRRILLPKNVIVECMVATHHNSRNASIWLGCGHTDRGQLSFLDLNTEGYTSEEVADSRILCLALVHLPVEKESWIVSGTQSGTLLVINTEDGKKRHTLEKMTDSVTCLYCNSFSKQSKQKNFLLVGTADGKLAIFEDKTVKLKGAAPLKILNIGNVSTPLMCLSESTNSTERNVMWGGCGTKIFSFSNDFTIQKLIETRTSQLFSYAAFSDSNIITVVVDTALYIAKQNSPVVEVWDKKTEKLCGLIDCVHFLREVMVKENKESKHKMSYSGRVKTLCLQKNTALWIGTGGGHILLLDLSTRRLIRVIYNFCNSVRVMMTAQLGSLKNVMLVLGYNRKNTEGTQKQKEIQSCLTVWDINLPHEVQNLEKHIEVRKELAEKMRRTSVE

SMILES | IC50
CC1(C)CC(C(=O)Nc2cc3cc(C4CCC(N5CCC(F)C5)CC4)c(Cl)cc3cn2)CCO1 (single isomer, unassigned) [Ex-5.16, N-(7-chloro-6-(4-(3-fluoropyrrolidin-1-yl)cyclohexyl)isoquinolin-3-yl)-2,2-dimethyltetrahydro-2H-pyran-4-carboxamid] | 389 nM
Cn1cc(C2CC2C(=O)Nc2cc3cc(C4CCC(N5CC(F)C5)CC4)c(Cl)cc3cn2)cn1 (single isomer, unassigned) [Ex-5.8, N-(7-cchloro-6-(4-(3-fluoroazetidin-1-yl)cyclohexyl)isoquinolin-3-yl)-2-(1-methyl-1H-pyrazol-4-yl)cyclopropane-1-carboxamide] | 8.71 nM
CC1(C)CC(C(=O)Nc2cc3cc(C4CCC(N5CCC(F)C5)CC4)c(Cl)cc3cn2)CCO1 (single isomer, unassigned) [Ex-5.10, N-(7-chloro-6-(4-(3-fluoropyrrolidin-1-yl)cyclohexyl)isoquinolin-3-yl)-2,2-dimethyltetrahydro-2H-pyran-4-carboxamid] | 3.02 nM
N#CC1(c2cc3cc(NC(=O)C4CC4c4ccccn4)ncc3cc2F)CC12CC2 (single isomer, unassigned) [Ex-18.14, (1R,2R or 1S,2S)-N-(6-((R or S)-1-cyanospiro[2.2]pentan-1-yl)-7-fluoroisoquinolin-3-yl)-2-(pyridin-2-yl)cyclopropane-1-carboxamide] | 60.3 nM
N#CC1(c2ccc3cnc(NC(=O)C4CC45CCOCC5)cc3c2)CC12CC2 (single isomer, unassigned) [Ex-18.11, (R or S)-N-(6-((R or S)-1-cyanospiro[2.2]pentan-1-yl)isoquinolin-3-yl)-6-oxaspiro[2.5]octane-1-carboxamide] | 9.55 nM
CC1(N2CCC(c3cc4cc(NC(=O)C5CC56CCOC6)ncc4cc3Cl)CC2)COCC1F (single isomer, unassigned) [Ex-6.1, (R or S)-N-(7-chloro-6-(1-((3R,4R or 3S,4S)-4-fluoro-3-methyltetrahydrofuran-3-yl)piperidin-4-yl)isoquinolin-3-yl)-5-oxaspiro [2.4] heptane-1-carboxamide] | 42.7 nM
Cn1cc(C2CC2C(=O)Nc2cc3cc(C4CC(N5CC(F)C5)C4)c(Cl)cc3cn2)cn1 (single isomer, unassigned) [Ex-5.26, N-(7-chloro-6-(3-(3-fluoroazetidin-1-yl)cyclobutyl)isoquinolin-3-yl)-2-(1-methyl-1H-pyrazol-4-yl)cyclopropane-1-carboxamide] | 2.34 nM
CC1(N2CCC(c3cc4cc(NC(=O)C5CC5)ncc4cc3Cl)C(F)C2)COC1 (stereo not shown) [Ex-14.3, N-(7-chloro-6-(3-fluoro-1-(3-methyloxetan-3-yl)piperidin-4-yl)isoquinolin-3-yl)cyclopropanecarboxamide] | 0.589 nM
CC(C)(O)C1CC1C(=O)Nc1cc2cc(C3CCN(C4(C)CCOC4)CC3)c(Cl)cc2cn1 (single isomer, unassigned) [Ex-6.13, N-(7-chloro-6-(1-(3-methyltetrahydrofuran-3-yl)piperidin-4-yl)isoquinolin-3-yl)-2-(2-hydroxypropan-2-yl)cyclopropane-1-carboxamide] | 5.89 nM
O=C(Nc1cc2cc(C3CCN(C4COC4)CC3)c(Cl)cc2cn1)[C@@H]1C[C@@H](O)[C@H](F)C1 [Ex-1.12, (1R,3R,4R)-N-(7-chloro-6-(1-(oxetan-3-yl)piperidin-4-yl)isoquinolin-3-yl)-3-fluoro-4-hydroxycyclopentane-1-carboxamide] | 9.33 nM
Cc1cc2cnc(NC(=O)C3CC34CCOC4)cc2cc1C1CCN(C2(C)COCC2F)CC1 (single isomer, unassigned) [Ex-15.14, N-(6-(1-(4-fluoro-3-methyltetrahydrofuran-3-yl)piperidin-4-yl)-7-methylisoquinolin-3-yl)-5-oxaspiro[2.4]heptane-1-carboxamide] | 3.72 nM
CC1(N2CCC(c3cc4cc(NC(=O)CC5CCOCC5)ncc4cc3Cl)CC2)COCC1O (single isomer, unassigned) [Ex-1.39, N-(7-chloro-6-(1-((3R,4R or 3S,4S)-4-hydroxy-3-methyltetrahydrofuran-3-yl)piperidin-4-yl)isoquinolin-3-yl)-2-(tetrahydro-2H-pyran-4-yl)acetamide] | 0.398 nM
Cn1cc(C2CC2C(=O)Nc2cc3cc(C4(C#N)CC45CC5)ccc3cn2)cn1 (single isomer, unassigned) [Ex-1.24, (1R,2R or 1S,2S)-N-(6-((R or S)-1-cyanospiro[2.2]pentan-1-yl)isoquinolin-3-yl)-2-(1-methyl-1H-pyrazol-4-yl)cyclopropane-1-carboxamide] | 0.0813 nM

The remaining lines, values ahead:

IC50 | SMILES
1.17 nM | CC1(N2CCC(c3cc4cc(NC(=O)C5C6CCOCC65)ncc4cc3Cl)CC2)COCC1O (single isomer, unassigned) [Ex-4.33, N-(7-chloro-6-(1-(4-hydroxy-3-methyltetrahydrofuran-3-yl)piperidin-4-yl)isoquinolin-3-yl)-3-oxabicyclo[4.1.0]heptane-7-carboxamide]
43.7 nM | CC1(N2CCC(c3cc4cc(NC(=O)C5CCC(C(F)(F)F)OC5)ncc4cc3Cl)CC2)COCC1O (stereo not shown) [Ex-2.61]
0.126 nM | CC1(C)CC(C(=O)Nc2cc3cc(C4CCN(C5(C)COCC5O)CC4)c(Cl)cc3cn2)CO1 (stereo not shown) [Ex-2.30]
7.08 nM | CC1(C)C(C(=O)Nc2cc3cc(C4CCN(C5(C)COCC5O)CC4)c(Cl)cc3cn2)C1c1ccccn1 (single isomer, unassigned) [Ex-4.45, N-(7-chloro-6-(1-(4-hydroxy-3-methyltetrahydrofuran-3-yl)piperidin-4-yl)isoquinolin-3-yl)-2,2-dimethyl-3-(pyridin-2-yl)cyclopropane-1-carboxamide]
2.57 nM | CN(C)C1CCC2C(C(=O)Nc3cc4cc(C5CCN(C6(C)COCC6O)CC5)c(Cl)cc4cn3)C21 (single isomer, unassigned) [Ex-4.27, N-(7-chloro-6-(1-(4-hydroxy-3-methyltetrahydrofuran-3-yl)piperidin-4-yl)isoquinolin-3-yl)-2-(dimethylamino)bicyclo[3.1.0]hexane-6-carboxamide]
0.562 nM | CC1(N2CCC(c3cc4cc(NC(=O)C5CC5c5cncnc5)ncc4cc3Cl)CC2)COCC1O (single isomer, unassigned) [Ex-4.36, N-(7-chloro-6-(1-(4-hydroxy-3-methyltetrahydrofuran-3-yl)piperidin-4-yl)isoquinolin-3-yl)-2-(pyrimidin-5-yl)cyclopropane-1-carboxamide]
55 nM | CC1(N2CCC(c3cc4cc(NC(=O)c5cnn(C6CC6)c5)ncc4cc3Cl)CC2)COCC1O (single isomer, unassigned) [Ex-1.48, N-(7-chloro-6-(1-((3R,4R or 3S,4S)-4-hydroxy-3-methyltetrahydrofuran-3-yl)piperidin-4-yl)isoquinolin-3-yl)-1-cyclopropyl-1H-pyrazole-4-carboxamide]
1780 nM | CC1(N2CCC(c3cc4cc(NC(=O)C5CCC5c5ccccn5)ncc4cc3Cl)CC2)COCC1O (single isomer, unassigned) [Ex-4.74, N-(7-chloro-6-(1-(4-hydroxy-3-methyltetrahydrofuran-3-yl)piperidin-4-yl)isoquinolin-3-yl)-2-(pyridin-2-yl)cyclobutane-1-carboxamide]
1.15 nM | CC1(N2CCC(c3cc4cc(NC(=O)[C@H]5CCCO5)ncc4cc3Cl)CC2)COCC1O (stereo partly shown) [Ex-3.2]
0.977 nM | CC1(N2CCC(c3cc4cc(NC(=O)Cn5cc(Cl)cn5)ncc4cc3Cl)CC2)COCC1O (stereo not shown) [Ex-3.9]
135 nM | CC1(N2CCC(c3cc4cc(NC(=O)C5CC5c5cc(F)ccn5)ncc4cc3Cl)CC2)COCC1O (single isomer, unassigned) [Ex-4.39, N-(7-chloro-6-(1-(4-hydroxy-3-methyltetrahydrofuran-3-yl)piperidin-4-yl)isoquinolin-3-yl)-2-(4-fluoropyridin-2-yl)cyclopropane-1-carboxamide]
0.0813 nM | CC1(N2CCC(c3cc4cc(NC(=O)C5CC5C5CCCCO5)ncc4cc3Cl)CC2)COCC1O (single isomer, unassigned) [Ex-4.71, N-(7-chloro-6-(1-(4-hydroxy-3-methyltetrahydrofuran-3-yl)piperidin-4-yl)isoquinolin-3-yl)-2-(tetrahydro-2H-pyran-2-yl)cyclopropane-1-carboxamide]
1.15 nM | CCOC1CC1C(=O)Nc1cc2cc(C3CCN(C4(C)COCC4O)CC3)c(Cl)cc2cn1 (stereo not shown) [Ex-2.10]
1 nM | CC1(N2CCC(c3cc4cc(NC(=O)Cn5ccc(C(F)(F)F)n5)ncc4cc3Cl)CC2)COCC1O (stereo not shown) [Ex-3.10]
0.174 nM | CC(C)(O)C1CC(C(=O)Nc2cc3cc(C4CCN(C5(C)COCC5O)CC4)c(Cl)cc3cn2)C1 (stereo not shown) [Ex-2.13]
129 nM | CC1(N2CCC(c3cc4cc(NC(=O)C5CC5c5cccs5)ncc4cc3Cl)CC2)COCC1O (single isomer, unassigned) [Ex-4.59, N-(7-chloro-6-(1-(4-hydroxy-3-methyltetrahydrofuran-3-yl)piperidin-4-yl)isoquinolin-3-yl)-2-(thiophen-2-yl)cyclopropane-1-carboxamide]
0.0813 nM | Cc1cc2cnc(NC(=O)C3CC3c3ccccn3)cc2cc1C1CCN(C2(C)CCOC2)CC1 (single isomer, unassigned) [Ex-16.12, N-(7-methyl-6-(1-(3-methyltetrahydrofuran-3-yl)piperidin-4-yl)isoquinolin-3-yl)-2-(pyridin-2-yl)cyclopropane-1-carboxamide]
1.74 nM | CC1(N2CCC(c3cc4cc(NC(=O)C5CC5c5ccncc5)ncc4cc3Cl)CC2)COCC1O (single isomer, unassigned) [Ex-4.22, N-(7-chloro-6-(1-(4-hydroxy-3-methyltetrahydrofuran-3-yl)piperidin-4-yl)isoquinolin-3-yl)-2-(pyridin-4-yl)cyclopropane-1-carboxamide]

— US20240398784A1, “C-LINKED ISOQUINOLINE AMIDES AS LRRK2 INHIBITORS, PHARMACEUTICAL COMPOSITIONS, AND USES THEREOF” (Merck Sharp & Dohme LLC, priority 2021, published 2024)
